# In patent US8507536B2, “Gonadotropin-releasing hormone receptor antagonists and methods relating thereto” (Neurocrine Biosciences, Inc., priority 2007, dated 2013):
# Biological target: T1, human GnRH receptor (Homo sapiens, UniProt P30968)
# T1 construct: expressed in transfected cells; membrane preparations
# T1 sequence (P30968 1-328): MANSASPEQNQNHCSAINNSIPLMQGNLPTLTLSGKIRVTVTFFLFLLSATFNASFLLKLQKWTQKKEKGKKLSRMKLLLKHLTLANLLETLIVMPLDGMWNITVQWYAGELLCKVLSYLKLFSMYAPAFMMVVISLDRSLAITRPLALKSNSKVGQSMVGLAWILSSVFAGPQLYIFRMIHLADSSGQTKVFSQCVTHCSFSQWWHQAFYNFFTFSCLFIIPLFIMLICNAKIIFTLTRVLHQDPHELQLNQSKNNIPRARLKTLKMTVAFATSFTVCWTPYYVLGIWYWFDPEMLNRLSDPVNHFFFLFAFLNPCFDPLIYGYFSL
# Test: peptide competitive human receptor binding assays (radioligand displacement)
# Conditions: tested in one or more of the peptide competitive human receptor binding assays
# Protocol: HEK293 cells stably transfected with the human GnRH receptor are grown for two days after achieving confluence then are harvested by striking tissue culture flasks against a firm surface. Cells are collected by centrifugation at 1000 g for […]. Cell pellets are resuspended in 5% sucrose and homogenized using a polytron homogenizer for two 15 second homogenization steps. Cell homogenates are then centrifuged for 5 minutes at 3000 g to remove nuclei and the supernatant subsequently centrifuged for 30 minutes at 44,000 g to collect the membrane fraction. The membrane pellet is resuspended in GnRH binding buffer (10 mM HEPES, pH 7.5, 150 mM NaCl and 0.1% BSA) and aliquots immediately snap-frozen in liquid nitrogen and stored at −80° C. Protein content of the membrane suspension is determined using the Bio-Rad protein assay kit (Bio-Rad).
# RBL cells stably transfected with the human GnRH receptor are grown to 80% confluency prior to harvesting. The cells are incubated at 37° C. for 10 min in 0.5 mM EDTA/PBS (Ca^++, Mg^++ free), and are dislodged from the plate by gentle rapping of the flasks. Cells are collected and pelleted by centrifugation at 1000 g for 5 minutes. Cell pellets are resuspended in buffer (DPBS supplemented with 10 mM MgCl2, 2 mM EGTA, pH=7.4), and cell lysis is performed using a pressure cell and applying N2 at a pressure of 900 psi for 30 min at 4° C. Unbroken cells and larger debris were removed by centrifugation at 1200 g for 10 min at 4° C. The cell membrane supernatant is then centrifuged at 45,000 g and the resulting membrane pellet is resuspended in assay buffer and homogenized on ice using a tissue homogenizer. Protein concentrations are determined using the Coomassie Plus Protein Reagent kit. Membranes are aliquoted and stored at −80° C. until ready for use.
# Radioligand binding displacement assays using the peptide radioligands are performed in buffer containing 10 mM HEPES, 150 mM NaCl and 0.1% BSA, pH=7.5. Radioligand binding assays employing the use of [^3H]-1-(2,6-difluorobenzyl)-3-[(2R)-amino-2-phenethyl]-5-(2-fluoro-3-methoxyphenyl)-6-methyluracil (here the 3-methoxy group is tritiated) are run in buffer containing 50 mM Tris, 150 mM NaCl, 5 mM MgCl2, 0.01% saponin and 0.5 mM EDTA, pH=7.5. Radioligand displacement assays are performed by incubating radioligand ([^125I-Tyr^5, DLeu^6, NMeLeu^7, Pro^9-NEt]GnRH (0.1 nM), [His^5, ^125I-DTyr^6]GnRH (0.2 nM) (31) or [^3H]-1-(2,6-difluorobenzyl)-3-[(2R)-amino-2-phenethyl]-5-(2-fluoro-3-methoxyphenyl)-6-methyluracil (1 nM)), unlabeled competitors at concentrations ranging from 0.3 pM to 10 μM, and membranes for 2 hrs at rt. 10 to 20 μg protein/well is used from membrane preparations for human, monkey and rabbit GnRH receptor. 5 μg/well and 60 μg/well of membranes are used for rat and dog GnRH receptors, respectively. Binding assays are performed in either Millipore 96-well GF/C filtration plates (for ([^125I-Tyr^5, DLeu^6, NMeLeu^7, Pro^9-NEt]GnRH assays), or in 96 well low binding plates, which are subsequently filtered onto GF/C Unifilters. Filters are pretreated with 0.5% PEI for 30 min prior to use. Reactions are terminated by rapid vacuum filtration, and the filters are washed twice with 250 μL ice cold PBS pH=7.4 (0.01% Tween-20 is included in wash media for [His^5, ^125I-DTyr^6]GnRH and [^3H]-1-(2,6-difluorobenzyl)-3-[(2R)-amino-2-phenethyl]-5-(2-fluoro-3-methoxyphenyl)-6-methyluracil radioligands). The filters are dried, and the Millipore filters are monitored for radioactivity using a Cobra II gamma counter (Perkin Elmer Life Sciences). For assays filtered onto the GF/C Unifilter plates, 50 μL scintillation fluid is added to each filter, and radioactivity is monitored using a TopCount NXT. For iodinated radioligands, total radioligand is monitored on a gamma counter, and for the tritiated radioligand, total radioligand is monitored using a Perkin Elmer 1600TR liquid scintillation counter. […]
row,Ki,SMILES
1,≤ 100 nM,"CN(c1ccccn1)S(=O)(=O)c1cc(-c2cnc(C(F)(F)F)cc2C#N)c(Cl)cc1OCCC(=O)O [Example 18-2, 3-[5-chloro-4-(4-cyano-6-trifluoromethyl-pyridin-3-yl)-2-(methyl-pyridin-2-yl-sulfamoyl)-phenoxy]-propionic acid]"
2,≤ 100 nM,"COC(=O)Cc1cc(Cl)c(-c2cnc(C(F)(F)F)cc2C#N)cc1S(=O)(=O)N1CCC(C)(C)c2ccccc21 [Example 16-1, [5-Chloro-4-(4-cyano-6-trifluoromethyl-pyridin-3-yl)-2-(4,4-dimethyl-3,4-dihydro-2H-quinoline-1-sulfonyl)-phenyl]-acetic acid methyl ester]"
3,≤ 100 nM,COc1cc(Cl)c(-c2cnc(C(F)(F)F)cc2C#N)cc1S(=O)(=O)N(C)c1cccc(C)c1 [Example 15-9]
4,≤ 100 nM,COc1ccccc1N(C)S(=O)(=O)c1ccc(Cl)c(-c2cnc(Cl)cc2Cl)c1 [Example 5-2]
5,≤ 100 nM,"N#Cc1cc(C(F)(F)F)ncc1-c1cc(S(=O)(=O)N2CCCCc3ccccc32)c(OCCCO)cc1Cl [Example 9-2, 5-[2-Chloro-4-(3-hydroxy-propoxy)-5-(2,3,4,5-tetrahydro-benzo[b]azepine-1-sulfonyl)-phenyl]-2-trifluoromethyl-isonicotinonitrile]"
6,≤ 100 nM,COc1cc(Cl)c(-c2cnc(C(F)(F)F)cc2C#N)cc1S(=O)(=O)N1CCCCc2ccccc21 [Example 15-17]
7,≤ 100 nM,N#Cc1cc(C(F)(F)F)ncc1-c1cc(S(=O)(=O)N2CCOCc3ccccc32)ccc1Cl [Example 4-17]
8,≤ 100 nM,"CC(C)(C)OC(=O)CCCOc1cc(Cl)c(-c2cnc(C(F)(F)F)cc2C#N)cc1S(=O)(=O)N1CCCCc2ccccc21 [Example 6-1, 4-[5-chloro-4-(4-cyano-6-trifluoromethyl-pyridin-3-yl)-2-(2,3,4,5-tetrahydro-benzo[b]azepine-1-sulfonyl)-phenoxy]-butyric acid tert-butyl ester]"
9,≤ 100 nM,Cc1cc(C(F)(F)F)ncc1-c1cc(S(=O)(=O)N2CCCc3ccccc32)ccc1Cl [Example 4-10]
10,≤ 100 nM,"CN(c1ccccn1)S(=O)(=O)c1cc(-c2cnc(C(F)(F)F)cc2C#N)c(Cl)cc1OCCCC(=O)O [Example 18-1, 4-[5-chloro-4-(4-cyano-6-trifluoromethyl-pyridin-3-yl)-2-(methyl-pyridin-2-yl-sulfamoyl)-phenoxy]-butyric acid]"
11,≤ 100 nM,Cc1cc(Cl)ncc1-c1cc(S(=O)(=O)N2CCCOc3ccccc32)ccc1Cl [Example 4-23]
12,≤ 100 nM,"CC1(C)CCN(S(=O)(=O)c2cc(-c3cnc(C(F)(F)F)cc3C#N)c(Cl)cc2OCCCC(=O)O)c2ccccc21 [Example 12-1, 4-[5-chloro-4-(4-cyano-6-trifluoromethyl-pyridin-3-yl)-2-(4,4-dimethyl-3,4-dihydro-2H-quinoline-1-sulfonyl)-phenoxy]-butyric acid]"
13,≤ 100 nM,COc1cc(Cl)c(-c2cnc(C(F)(F)F)cc2C#N)cc1S(=O)(=O)N(C)c1ncccc1C [Example 15-19]
14,≤ 100 nM,COc1cc(Cl)c(-c2cnc(C(F)(F)F)cc2C#N)cc1S(=O)(=O)N(C)c1ccccc1F [Example 15-12]
15,≤ 100 nM,COc1cc(Cl)c(-c2cnc(C(F)(F)F)cc2C#N)cc1S(=O)(=O)N(C)CC(C)(C)C [Example 15-30]
16,≤ 100 nM,COc1cc(Cl)c(-c2cnc(C(F)(F)F)cc2C#N)cc1S(=O)(=O)N(C)Cc1ccc(F)cc1 [Example 15-33]
17,≤ 100 nM,Cc1cc(C#N)ncc1-c1cc(S(=O)(=O)N2CCCCc3ccccc32)c(OCCCC(=O)O)cc1Cl [Example 7-3]

row,Ki,SMILES
1,≤ 100 nM,Cc1cc(C(F)(F)F)ncc1-c1cc(S(=O)(=O)N2CCCCc3ccccc32)c(OCCCC(=O)O)cc1Cl [Example 7-2]
2,≤ 100 nM,CCOC(=O)CN(C)S(=O)(=O)c1cc(-c2cnc(C(F)(F)F)cc2C#N)c(Cl)cc1OC [Example 15-26]
3,≤ 100 nM,COc1ccccc1N(C)S(=O)(=O)c1cc(-c2cnc(C(F)(F)F)cc2C#N)c(Cl)cc1OC [Example 15-16]
4,≤ 100 nM,COc1cccc(N(C)S(=O)(=O)c2cc(-c3cnc(C(F)(F)F)cc3C#N)c(Cl)cc2OC)c1 [Example 15-14]
5,≤ 100 nM,COc1cc(Cl)c(-c2cnc(C(F)(F)F)cc2C#N)cc1S(=O)(=O)N(C)c1cccc(F)c1 [Example 15-11]
6,≤ 100 nM,COc1ccccc1CN(C)S(=O)(=O)c1cc(-c2cnc(C(F)(F)F)cc2C#N)c(Cl)cc1OC [Example 15-29]
7,≤ 100 nM,O=S(=O)(c1ccc(Cl)c(-c2cnc(Cl)cc2Cl)c1)N1CCOc2ccccc21 [Example 5-4]
8,≤ 100 nM,COc1cc(Cl)c(-c2cnc(C(F)(F)F)cc2C#N)cc1S(=O)(=O)N(C)c1ccccc1C [Example 15-5]
9,≤ 100 nM,Cc1cc(Cl)ncc1-c1cc(S(=O)(=O)N2CCCC(=O)c3ccccc32)ccc1Cl [Example 4-2]
10,≤ 100 nM,"COc1cc(Cl)c(-c2cnc(C(F)(F)F)cc2C#N)cc1S(=O)(=O)N(C)c1ccccc1 [Example 15-1, 4-chloro-5-(4-cyano-6-trifluoromethyl-pyridin-3-yl)-2-methoxy-N-methyl-N-phenyl-benzenesulfonamide]"
11,≤ 100 nM,COc1cccc(N(C)S(=O)(=O)c2cc(-c3cnc(C(F)(F)F)cc3C#N)c(Cl)cc2OC)n1 [Example 15-20]
12,≤ 100 nM,"Cc1cc(C#N)ncc1-c1cc(S(=O)(=O)N2CCCCc3ccccc32)c(OCCCO)cc1Cl [Example 9-1, 5-[2-chloro-4-(3-hydroxy-propoxy)-5-(2,3,4,5-tetrahydro-benzo[b]azepine-1-sulfonyl)-phenyl]-4-methyl-pyridine-2-carbonitrile]"
13,≤ 100 nM,COc1cc(Cl)c(-c2cnc(C(F)(F)F)cc2C#N)cc1S(=O)(=O)N(C)c1cccc(Cl)c1 [Example 15-3]
14,≤ 100 nM,N#Cc1cc2ccccc2nc1-c1cc(S(=O)(=O)N2CCCCc3ccccc32)c(OCCCC(=O)O)cc1Cl [Example 7-4]
15,≤ 100 nM,CCCCNS(=O)(=O)c1cc(-c2cnc(C(F)(F)F)cc2C#N)c(Cl)cc1OC [Example 15-28]
16,≤ 100 nM,"CC1(C)CCN(S(=O)(=O)c2cc(-c3cnc(C(F)(F)F)cc3C#N)c(Cl)cc2OCCO)c2ccccc21 [Example 11-2, 5-[2-chloro-5-(4,4-dimethyl-3,4-dihydro-2H-quinoline-1-sulfonyl)-4-(2-hydroxy-ethoxy)-phenyl]-2-trifluoromethyl-isonicotinonitrile]"
17,≤ 100 nM,"Cc1cc(C(F)(F)F)nc(=O)n1-c1cc(S(=O)(=O)N2CCCCc3ccccc32)ccc1Cl [Example 13-1, 1-[2-chloro-5-(2,3,4,5-tetrahydro-benzo[b]azepine-1-sulfonyl)-phenyl]-6-methyl-4-trifluoromethyl-1H-pyrimidin-2-one]"

row,SMILES,Ki
1,"CC1(C)CCN(S(=O)(=O)c2cc(-c3cnc(C(F)(F)F)cc3C#N)c(Cl)cc2OCCCCO)c2ccccc21 [Example 11-1, 5-[2-chloro-5-(4,4-dimethyl-3,4-dihydro-2H-quinoline-1-sulfonyl)-4-(4-hydroxy-butoxy)-phenyl]-2-trifluoromethyl-isonicotinonitrile]",≤ 100 nM
